Assay [1] addresses PAS domain-containing serine/threonine-protein kinase (Homo sapiens) (UniProt Q96RG2). Kind of assay: Inhibition of PASK (unknown origin) at 10 uM after 120 mins P33 radiolabeled kinase activity assay.
Assay [2] deals with CDK6/cyclin D1 (Homo sapiens) (UniProt P24385+Q00534). Put plainly: Inhibition of CDK6/cyclin D1 (unknown origin) at 10 uM after 120 mins P33 radiolabeled kinase activity assay. Format: protein-complex assay.
For assay [3], the target named is T1, Dual specificity mitogen-activated protein kinase kinase 3 (Homo sapiens) (UniProt P46734).
T1 sequence (whole entry): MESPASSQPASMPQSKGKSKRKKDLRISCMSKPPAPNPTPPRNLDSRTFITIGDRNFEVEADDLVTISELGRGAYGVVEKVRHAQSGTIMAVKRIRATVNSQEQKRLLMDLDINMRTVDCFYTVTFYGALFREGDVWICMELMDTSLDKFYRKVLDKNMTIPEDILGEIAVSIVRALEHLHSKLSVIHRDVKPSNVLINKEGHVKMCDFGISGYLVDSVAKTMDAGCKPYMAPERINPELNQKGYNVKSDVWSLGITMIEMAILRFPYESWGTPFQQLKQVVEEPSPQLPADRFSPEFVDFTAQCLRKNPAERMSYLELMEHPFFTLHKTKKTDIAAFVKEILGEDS
Put plainly: Inhibition of MEK3 (unknown origin) at 10 uM after 120 mins P33 radiolabeled kinase activity assay.

In assay [4] the target is Fibroblast growth factor receptor 2 (Homo sapiens) (UniProt P21802). Put plainly: Inhibition of FGFR2 (unknown origin) at 10 uM after 120 mins P33 radiolabeled kinase activity assay.
Assay [5] addresses Tyrosine-protein kinase CSK (Homo sapiens) (UniProt P41240). Kind of assay: Inhibition of CSK (unknown origin) at 10 uM after 120 mins P33 radiolabeled kinase activity assay.
In assay [6] the target is Mitogen-activated protein kinase 3 (Homo sapiens) (UniProt P27361). Put plainly: Inhibition of ERK1 (unknown origin) at 10 uM after 120 mins P33 radiolabeled kinase activity assay.
In assay [7] the target is T2, Serine/threonine-protein kinase TBK1 (Homo sapiens) (UniProt Q9UHD2).
T2 sequence (whole entry): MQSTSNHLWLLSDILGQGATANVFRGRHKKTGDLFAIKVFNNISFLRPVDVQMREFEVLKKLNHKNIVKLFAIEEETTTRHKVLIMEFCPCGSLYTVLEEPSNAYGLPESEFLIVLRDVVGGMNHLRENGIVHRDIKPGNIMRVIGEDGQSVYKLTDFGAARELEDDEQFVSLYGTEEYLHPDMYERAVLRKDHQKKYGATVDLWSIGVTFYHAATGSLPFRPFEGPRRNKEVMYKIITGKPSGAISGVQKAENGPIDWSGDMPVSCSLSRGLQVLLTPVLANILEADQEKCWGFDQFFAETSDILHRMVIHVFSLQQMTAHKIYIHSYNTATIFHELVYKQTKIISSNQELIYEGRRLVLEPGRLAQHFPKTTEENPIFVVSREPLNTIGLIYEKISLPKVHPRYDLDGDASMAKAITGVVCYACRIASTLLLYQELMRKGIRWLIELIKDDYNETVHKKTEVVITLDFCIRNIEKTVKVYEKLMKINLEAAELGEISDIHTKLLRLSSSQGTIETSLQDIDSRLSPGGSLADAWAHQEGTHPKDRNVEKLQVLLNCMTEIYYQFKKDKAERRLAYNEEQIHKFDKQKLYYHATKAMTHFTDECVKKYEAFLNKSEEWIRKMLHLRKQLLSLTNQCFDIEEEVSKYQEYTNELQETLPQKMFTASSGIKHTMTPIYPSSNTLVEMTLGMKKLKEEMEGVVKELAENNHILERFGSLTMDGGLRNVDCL
Kind of assay: Inhibition of TBK1 (unknown origin) at 10 uM after 120 mins P33 radiolabeled kinase activity assay.

Assay [8] has as its target T3, TGF-beta receptor type-1 (Homo sapiens) (UniProt P36897).
T3 sequence (whole entry): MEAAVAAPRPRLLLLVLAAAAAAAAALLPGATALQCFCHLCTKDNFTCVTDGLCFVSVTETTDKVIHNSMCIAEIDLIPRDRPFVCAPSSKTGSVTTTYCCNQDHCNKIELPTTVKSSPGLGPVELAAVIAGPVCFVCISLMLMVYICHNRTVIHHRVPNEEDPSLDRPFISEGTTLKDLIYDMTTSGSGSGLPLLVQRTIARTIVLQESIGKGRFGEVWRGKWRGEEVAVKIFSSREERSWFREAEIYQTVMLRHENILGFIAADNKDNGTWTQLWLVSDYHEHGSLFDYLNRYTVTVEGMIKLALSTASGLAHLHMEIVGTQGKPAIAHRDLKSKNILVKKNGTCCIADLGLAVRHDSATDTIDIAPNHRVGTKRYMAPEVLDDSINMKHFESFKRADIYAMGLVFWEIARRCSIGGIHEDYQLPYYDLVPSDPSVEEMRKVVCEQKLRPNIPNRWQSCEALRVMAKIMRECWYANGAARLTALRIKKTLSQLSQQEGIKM
Put plainly: Inhibition of ALK5 (unknown origin) at 10 uM after 120 mins P33 radiolabeled kinase activity assay.

The target in assay [9] is Mitogen-activated protein kinase kinase kinase 11 (Homo sapiens) (UniProt Q16584). Kind of assay: Inhibition of MLK3 (unknown origin) at 10 uM after 120 mins P33 radiolabeled kinase activity assay.
In assay [10] the target is CDK1/Cyclin E (Homo sapiens) (UniProt P06493+P24864). Kind of assay: Inhibition of CDK1/cyclin E (unknown origin) at 10 uM after 120 mins P33 radiolabeled kinase activity assay. Format: protein-complex assay.
Chain of CDK1/Cyclin E (Homo sapiens) (P06493 whole entry, looked up): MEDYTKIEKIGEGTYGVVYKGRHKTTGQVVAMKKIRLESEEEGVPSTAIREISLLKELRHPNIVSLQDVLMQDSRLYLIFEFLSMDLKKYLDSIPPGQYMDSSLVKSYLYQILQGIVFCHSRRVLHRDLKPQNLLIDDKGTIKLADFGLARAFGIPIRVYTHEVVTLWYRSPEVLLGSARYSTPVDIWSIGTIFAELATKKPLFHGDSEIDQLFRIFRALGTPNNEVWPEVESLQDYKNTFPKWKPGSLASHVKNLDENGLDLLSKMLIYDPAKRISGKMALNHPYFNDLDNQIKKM
Chain of CDK1/Cyclin E (Homo sapiens) (P24864 whole entry, looked up): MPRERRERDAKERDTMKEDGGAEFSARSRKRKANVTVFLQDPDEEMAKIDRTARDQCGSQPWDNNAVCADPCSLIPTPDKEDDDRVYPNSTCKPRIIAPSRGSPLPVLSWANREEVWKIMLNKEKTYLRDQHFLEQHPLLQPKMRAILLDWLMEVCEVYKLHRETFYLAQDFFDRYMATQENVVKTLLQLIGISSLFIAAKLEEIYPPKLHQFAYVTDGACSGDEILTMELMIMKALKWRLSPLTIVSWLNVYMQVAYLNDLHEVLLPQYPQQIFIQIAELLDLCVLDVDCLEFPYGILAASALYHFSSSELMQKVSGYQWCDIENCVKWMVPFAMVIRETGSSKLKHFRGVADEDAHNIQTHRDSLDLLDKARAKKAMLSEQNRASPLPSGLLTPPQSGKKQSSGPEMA

Chain of PAS domain-containing serine/threonine-protein kinase (Homo sapiens) (Q96RG2 whole entry, the tested form may be a part): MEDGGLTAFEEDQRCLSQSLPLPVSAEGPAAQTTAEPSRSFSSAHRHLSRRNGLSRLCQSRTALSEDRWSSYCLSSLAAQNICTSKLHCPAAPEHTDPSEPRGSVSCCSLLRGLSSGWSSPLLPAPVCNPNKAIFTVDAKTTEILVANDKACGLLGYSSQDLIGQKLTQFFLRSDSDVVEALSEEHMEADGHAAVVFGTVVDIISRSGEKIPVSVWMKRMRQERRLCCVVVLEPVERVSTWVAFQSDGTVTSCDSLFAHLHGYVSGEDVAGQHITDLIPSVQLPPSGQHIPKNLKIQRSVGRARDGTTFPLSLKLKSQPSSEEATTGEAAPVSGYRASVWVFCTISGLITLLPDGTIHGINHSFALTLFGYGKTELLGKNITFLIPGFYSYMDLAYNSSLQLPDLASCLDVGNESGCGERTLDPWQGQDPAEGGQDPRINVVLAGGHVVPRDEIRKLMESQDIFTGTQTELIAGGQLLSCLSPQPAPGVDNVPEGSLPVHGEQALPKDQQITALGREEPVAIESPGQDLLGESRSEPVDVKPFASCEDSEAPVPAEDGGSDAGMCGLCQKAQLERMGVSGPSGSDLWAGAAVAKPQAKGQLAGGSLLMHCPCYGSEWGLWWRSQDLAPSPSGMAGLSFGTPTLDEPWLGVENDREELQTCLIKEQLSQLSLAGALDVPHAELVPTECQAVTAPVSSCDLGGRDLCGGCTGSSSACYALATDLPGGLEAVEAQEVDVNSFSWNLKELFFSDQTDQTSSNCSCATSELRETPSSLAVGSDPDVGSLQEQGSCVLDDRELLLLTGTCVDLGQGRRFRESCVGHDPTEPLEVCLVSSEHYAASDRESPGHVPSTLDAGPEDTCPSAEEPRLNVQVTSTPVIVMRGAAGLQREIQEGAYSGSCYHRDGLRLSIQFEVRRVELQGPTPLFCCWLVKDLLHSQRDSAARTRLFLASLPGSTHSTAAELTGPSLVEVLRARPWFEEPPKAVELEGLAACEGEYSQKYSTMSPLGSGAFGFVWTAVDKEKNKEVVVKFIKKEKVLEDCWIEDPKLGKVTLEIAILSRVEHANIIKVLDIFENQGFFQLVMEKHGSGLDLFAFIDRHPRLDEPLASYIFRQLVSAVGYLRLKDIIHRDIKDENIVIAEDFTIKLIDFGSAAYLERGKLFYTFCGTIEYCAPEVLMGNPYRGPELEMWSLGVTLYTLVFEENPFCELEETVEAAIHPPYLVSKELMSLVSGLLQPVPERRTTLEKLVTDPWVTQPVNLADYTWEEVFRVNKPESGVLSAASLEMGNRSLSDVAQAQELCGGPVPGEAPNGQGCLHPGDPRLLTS
Chain of Mitogen-activated protein kinase kinase kinase 11 (Homo sapiens) (Q16584 whole entry, looked up): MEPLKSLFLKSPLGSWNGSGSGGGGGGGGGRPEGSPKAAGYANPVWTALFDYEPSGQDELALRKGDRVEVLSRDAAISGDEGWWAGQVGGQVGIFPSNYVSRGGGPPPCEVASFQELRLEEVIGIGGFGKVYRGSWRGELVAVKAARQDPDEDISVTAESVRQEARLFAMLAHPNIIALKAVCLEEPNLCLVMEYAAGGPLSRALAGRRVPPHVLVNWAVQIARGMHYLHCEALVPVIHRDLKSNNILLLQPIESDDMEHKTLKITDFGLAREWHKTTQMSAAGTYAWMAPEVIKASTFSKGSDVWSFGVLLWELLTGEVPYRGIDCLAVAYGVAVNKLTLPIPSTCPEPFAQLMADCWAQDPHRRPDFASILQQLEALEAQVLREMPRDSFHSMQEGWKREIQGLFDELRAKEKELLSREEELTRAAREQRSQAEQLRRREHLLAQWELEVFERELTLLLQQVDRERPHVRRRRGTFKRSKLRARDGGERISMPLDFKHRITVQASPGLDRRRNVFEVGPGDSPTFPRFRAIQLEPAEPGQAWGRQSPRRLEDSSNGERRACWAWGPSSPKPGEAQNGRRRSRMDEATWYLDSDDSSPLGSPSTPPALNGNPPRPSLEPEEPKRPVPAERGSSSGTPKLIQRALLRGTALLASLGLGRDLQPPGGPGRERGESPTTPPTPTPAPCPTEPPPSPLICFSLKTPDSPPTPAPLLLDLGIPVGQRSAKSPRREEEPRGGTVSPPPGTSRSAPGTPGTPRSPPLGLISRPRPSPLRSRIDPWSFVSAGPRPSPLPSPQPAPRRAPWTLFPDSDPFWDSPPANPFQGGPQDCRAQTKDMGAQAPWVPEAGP
Chain of Fibroblast growth factor receptor 2 (Homo sapiens) (P21802 22-821 limits assumed): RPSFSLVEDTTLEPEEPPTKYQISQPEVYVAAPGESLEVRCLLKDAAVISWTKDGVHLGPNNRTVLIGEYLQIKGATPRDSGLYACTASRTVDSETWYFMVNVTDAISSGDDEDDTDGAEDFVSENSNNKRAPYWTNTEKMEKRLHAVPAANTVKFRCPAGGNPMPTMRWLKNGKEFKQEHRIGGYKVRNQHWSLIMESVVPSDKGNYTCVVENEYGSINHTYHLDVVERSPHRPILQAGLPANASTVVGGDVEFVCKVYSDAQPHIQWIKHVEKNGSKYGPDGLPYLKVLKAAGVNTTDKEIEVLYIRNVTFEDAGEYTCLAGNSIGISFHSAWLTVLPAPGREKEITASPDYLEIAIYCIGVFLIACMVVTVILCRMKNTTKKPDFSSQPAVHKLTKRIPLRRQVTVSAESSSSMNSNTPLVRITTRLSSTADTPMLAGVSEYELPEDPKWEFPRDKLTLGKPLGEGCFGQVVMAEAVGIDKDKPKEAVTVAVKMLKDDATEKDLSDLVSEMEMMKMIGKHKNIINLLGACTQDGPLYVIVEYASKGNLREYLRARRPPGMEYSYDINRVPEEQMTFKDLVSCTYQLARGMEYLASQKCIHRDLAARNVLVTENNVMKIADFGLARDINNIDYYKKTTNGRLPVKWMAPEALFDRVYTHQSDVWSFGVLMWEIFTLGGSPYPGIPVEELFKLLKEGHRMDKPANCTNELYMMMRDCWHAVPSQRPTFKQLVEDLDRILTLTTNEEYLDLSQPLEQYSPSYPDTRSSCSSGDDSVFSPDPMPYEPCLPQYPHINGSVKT
Chain of Mitogen-activated protein kinase 3 (Homo sapiens) (P27361 whole entry): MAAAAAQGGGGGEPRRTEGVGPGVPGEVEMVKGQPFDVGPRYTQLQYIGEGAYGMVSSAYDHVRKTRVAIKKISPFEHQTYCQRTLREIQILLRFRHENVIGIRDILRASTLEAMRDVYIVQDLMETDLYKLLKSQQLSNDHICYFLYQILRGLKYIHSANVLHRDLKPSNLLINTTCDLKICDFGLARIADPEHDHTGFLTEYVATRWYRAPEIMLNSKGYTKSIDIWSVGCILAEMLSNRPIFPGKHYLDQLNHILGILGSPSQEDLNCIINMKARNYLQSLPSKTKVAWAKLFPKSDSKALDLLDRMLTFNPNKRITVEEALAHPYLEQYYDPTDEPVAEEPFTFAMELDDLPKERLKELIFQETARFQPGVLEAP
Chain of Tyrosine-protein kinase CSK (Homo sapiens) (P41240 2-450 limits assumed): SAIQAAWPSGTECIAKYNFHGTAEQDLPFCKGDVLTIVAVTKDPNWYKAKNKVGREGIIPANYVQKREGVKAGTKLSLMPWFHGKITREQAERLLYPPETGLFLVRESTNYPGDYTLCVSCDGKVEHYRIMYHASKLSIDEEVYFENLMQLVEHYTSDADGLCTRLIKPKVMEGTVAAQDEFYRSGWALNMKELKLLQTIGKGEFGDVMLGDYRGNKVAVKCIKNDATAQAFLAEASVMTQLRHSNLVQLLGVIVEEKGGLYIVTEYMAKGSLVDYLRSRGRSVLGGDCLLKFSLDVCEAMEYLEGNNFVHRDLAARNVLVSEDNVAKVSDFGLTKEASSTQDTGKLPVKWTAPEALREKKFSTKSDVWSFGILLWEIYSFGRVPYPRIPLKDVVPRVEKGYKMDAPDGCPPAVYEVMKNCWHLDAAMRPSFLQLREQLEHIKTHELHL

`CS(=O)(=O)c1cccc(Nc2nccc(-c3sc(N4CCOCC4)nc3-c3cccc(NS(=O)(=O)c4c(F)cccc4F)c3)n2)c1`: the inhibition in [1] was -0.14%; in assay [2] it was 26.4%; in assay [3], 21.2%; in assay [4], 64.4%; in assay [5] it was 100%; in assay [6] it was -3.91%. For the same molecule, the inhibition in assay [7] was found to be 55.4%; in assay [8], 69.6%; in [9] it was 92.7%; in assay [10], 78.3%.
For the molecule `CC(C)(C)c1cc(NC(=O)Nc2ccc(Oc3ccncc3)cc2)no1`, the inhibition in assay [1] was 10.9%; in assay [2], 17.4%; in assay [3] it was 3.51%; in assay [4] it was 79.4%; in assay [5], 78.4%; in assay [6], 3.03%. Besides, the inhibition was 4.25% in assay [7], -8.74% in assay [8], 60.1% in [9] and 72.2% in assay [10].
Consider `COCCNC(=O)c1ccc2c(c1)nc(-c1cnc(-c3ccc(Cl)cc3)[nH]1)n2CCOC`, for which the inhibition is -2.42% in assay [1]; 3.54% in assay [2]; 0.04% in [3]; 4.14% in assay [4]; 15.6% in assay [5]; 1.41% in [6]. Further, the inhibition is 5.84% in assay [7], -7.32% in assay [8], 6.84% in assay [9] and -2.74% in [10].

As usually defined, the inhibition is the drop in the measured response relative to a control, in per cent.

The record behind these values is ChEMBL document CHEMBL3627608, “Crystal structures of human RIP2 kinase catalytic domain complexed with ATP-competitive inhibitors: Foundations for understanding inhibitor selectivity” (Bioorg Med Chem, 2015).
